For nine compounds, IC50 results are on record in ChEMBL document CHEMBL1150126, “Oxidation products of abietic acid and its methyl ester” (J Nat Prod, 2002).

What is called IC50 is the concentration needed to halve the response being measured.

Values after ≈ are worked out from the molar mass of the structure shown.

One assay deals with KB. Put plainly: Cytotoxicity against human KB cells. The note with it: Homo sapiens, KB; read-out: IC50. The class given is functional, cell-based.
Turning to `COC(=O)[C@]1(C)CCC[C@]2(C)c3ccc(C(C)C)cc3[C@H](O)C[C@@H]12`, the IC50 worked out at 5.8 µg/mL (≈ 17.6 µM).

Take `COC(=O)[C@]1(C)CCC[C@@]2(C)[C@H]1CC=C1C=C(C(C)C)C(=O)C[C@@H]12`: the IC50 came to 12.5 µg/mL (≈ 37.8 µM).

Consider `COC(=O)[C@]1(C)CCC[C@]2(C)c3ccc(C(C)C)cc3C(=O)C[C@@H]12`, for which the IC50 is 4.5 µg/mL (≈ 13.7 µM).

The same assay, now with this note: kb.
For the compound `CC(C)C1=CC2=CC[C@@H]3[C@](C)(CCC[C@@]3(C)C(=O)O)[C@H]2CC1` [ABIETIC ACID], the IC50 entry is listed as “Not Active”.

Take `COC(=O)[C@]1(C)CCC[C@@]2(C)[C@H]1CC=C1C=C(C(C)C)CC[C@@H]12` [METHYL ABIETATE]: the IC50 entry is reported as “Not Active”.

Turning to `CC(C)C(=O)CC[C@H]1C(C=O)=CC[C@@H]2[C@]1(C)CCC[C@@]2(C)C(=O)O`, the IC50 result is on record as “Not Active”.

As to `CCO[C@@]1(C(C)C)C=C2[C@H](O)C[C@@H]3[C@](C)(CCC[C@@]3(C)C(=O)OC)[C@H]2CC1`, the half-maximal inhibitory concentration (IC50) result is “Not Active”.

As for `CC(C)(O)c1ccc2c(c1)[C@H](O)C[C@H]1[C@](C)(C(=O)O)CCC[C@]21C`, the IC50 entry is recorded as “Not Active”.

Take `COC(=O)[C@]1(C)CCC[C@@]2(C)[C@H]1C[C@@H](O)C1=C[C@@](O)(C(C)C)CC[C@@H]12`: the IC50 result is listed as “Not Active”.
